# Assay results from BindingDB's records for doi:10.1021/jm400638v (The University of Queensland, 2013).
# Where a SMILES comes first, the peptide text is derived from it. The star is where a group is joined. Palmitoyl = CCCCCCCCCCCCCCCC(=O)*
# Assay: Agonist activity at […] in human platelets by platelet aggregation assay in presence of SFLLRN
smiles,measurement,value
CCCCCCCCCCCCCCCC(=O)N[C@@H](CCCN=C(N)N)C(=O)N[C@@H](CS)C(=O)N[C@@H](CC(C)C)C(=O)N[C@@H](CO)C(=O)N[C@@H](CO)C(=O)N[C@@H](CO)C(=O)N[C@@H](C)C(=O)N[C@H](C(=O)N[C@@H](C)C(=O)N[C@@H](CC(N)=O)C(=O)N[C@@H](CCCN=C(N)N)C(=O)N[C@@H](CO)C(=O)N[C@@H](CCCCN)C(=O)N[C@@H](CCCCN)C(=O)N[C@@H](CO)C(=O)N[C@@H](CCCN=C(N)N)C(=O)N[C@@H](CC(C)C)C(=O)N[C@@H](Cc1ccccc1)C(=O)O)C(C)C (Palmitoyl-RCLSSSAVANRSKKSRLF-OH),EC50,8 µM
